Columns and labels:
Type in all cases: cell-based
[1] = test system: human dermal fibroblasts (HDFs); experiment: Oil Red O staining of fibroblasts cultured with compounds (Example 1); conditions: adipocyte induction medium with T3 1 nM and Rosiglitazone 1 μM, D4476 2 μM, SB431542 2 μM, ALK5 Inhibitor II 2 M, Pifithrin alpha 5 μM, day 14, FIG. 1
Method: The next day, the culture supernatant was removed by suction and, as described in the Figure, a normal medium, an adipocyte induction medium, or an adipocyte induction medium added with the compound and the like was added at 500 μL/well.
The adipocyte induction medium is a 10% FBS-added DMEM+MDI medium (10% FBS-added DMEM supplemented with 0.5 mM isobutylmethylxanthine (IBMX), 0.5 μM dexamethason and 1 μg/mL Insulin).
The concentrations of the additives are as follows: • T3: 1 nM • Rosiglitazone: 1 μM • D4476: 2 μM • Pifithrin alpha [p53 inhibitor]: 5 μM • SB431542: 2 μM • ALK5 Inhibitor II: […].
The culture medium was substituted by a fresh one every 3-4 days and the cells were cultured up to day 14.
After washing 3 times with sterile distilled water, Oil Red O staining solution was added, and the mixture was incubated at room temperature for 15 min. Then, the cells were washed with sterile distilled water and photographed at a magnification of 100 with a phase contrast microscope.

[2] = test system: human dermal fibroblasts (HDFs); experiment: CIDEA gene mRNA by real time RT-PCR (Example 4); conditions: induction medium + T3 + Rosiglitazone, compounds 2 μM, day 14, FIG. 4
Method: (§1) The next day, the culture supernatant was removed by suction and, as described in the Figure, a normal medium, an adipocyte induction medium, or an adipocyte induction medium added with each compound and the like was added at 500 μL/well. […] The concentrations of the additives are as follows: • T3: 1 nM • Rosiglitazone: 1 μM • D4476: 2 μM • Pifithrin alpha [p53 inhibitor]: 5 μM • SB431542: 2 μM • ALK5 Inhibitor II: 2 μM. The culture medium was substituted by a fresh one every 3 4 days and the cells were cultured up to day 14.

[3] = test system: human dermal fibroblasts (HDFs); experiment: AdipoQ gene mRNA by real time RT-PCR (Example 6); conditions: induction medium + T3 + Rosiglitazone, D4476, SB431542, ALK5 Inhibitor II 2 μM, PD0325901 1 μM, day 14, FIG. 6
Method: This was seeded in a 24-well plate at a concentration of 1×10^4 cells/well (day 0), and culturing was started at 5% CO2/95% humid air, 37° C. The next day, the culture supernatant was removed by suction and, as described in the Figure, a normal medium, an adipocyte induction medium, or an adipocyte induction medium added with each low-molecular-weight compound and the like was added at 500 μL/well. […] The concentrations of the additives are as follows: • T3: 1 nM • Rosiglitazone: 1 μM • D4476: 2 μM. • Pifithrin alpha [p53 inhibitor]: 5 μM • PD0325901: 1 μM • SB431542: 2 μM • ALK5 Inhibitor II: 2 μM. The culture medium was substituted by a fresh one every 3-4 days and the cells were cultured up to day 14.

[4] = test system: human dermal fibroblasts (HDFs); experiment: BODIPY staining of lipid droplets (Example 7); conditions: induction medium + T3 + Rosiglitazone, compounds 2 μM, day 14, FIG. 7A, 7B
Method: as §1, with “each low-molecular-weight” for “each”, “[…]:” for “D4476:”, “SB431541:” for “Pifithrin alpha [p53 inhibitor]: 5 μM • SB431542:”, “inhibitor” for “Inhibitor”, “3-4” for “3 4”, “14. […] The cells were photographed at a magnification of 200 with a fluorescence microscope and the fluorescence intensity was measured.” for “14.”

[5] = test system: human dermal fibroblasts (HDFs); experiment: UCP1 protein immunostaining, fluorescence intensity (Example 8); conditions: induction medium + T3 + Rosiglitazone, D4476, SB431541, ALK5 inhibitor II, FSK 2 μM, PD0325901 1 μM, day 14, FIG. 8A-C
Method: as §1, with “[…]:” for “D4476:”, “SB431541:” for “Pifithrin alpha [p53 inhibitor]: 5 μM • SB431542:”, “inhibitor” for “Inhibitor”, “II: 2 μM • PD0325901: 1 μM • Forskolin (FSK):” for “II:”, “3-4” for “3 4”, “14. […] The cells were photographed at a magnification of 200 with a fluorescence microscope and the fluorescence intensity was measured.” for “14.”

[6] = test system: human dermal fibroblasts (HDFs); experiment: UCP1 gene mRNA, comparison of four inhibitors at 4-16 μM (Example 15); conditions: for induction efficiency into brown adipocytes (order): compound at 4, 8, 12 or 16 μM up to Day 9, UCP1 mRNA on day 14, FIG. 15; for UCP1 gene expression (conversion to brown adipocytes): compound at 4, 8, 12 or 16 μM up to Day 9, then without compound Day 9-14, FIG. 15
Method: (Day −1). In the control (Ctrl) group, the culture supernatant of the next day (Day 0) was removed by suction and the cells were cultured in a normal medium up to day 14 while substituting the medium with a fresh one once every other day. In groups other than the control (Ctrl) group, the culture supernatant was removed by suction on day 0, an adipocyte induction medium or an adipocyte induction medium added with any of ALK5 inhibitor II, SB431542, LY2157299 and D4476 at a concentration of 4 μM, 8 μM, 12 μM or 16 μM respectively was added at 1 mL/well.
Thereafter, the cells were cultured in an adipocyte induction medium free of any compound of ALK5 inhibitor II, SB431542, LY215799 and D4476 during Day 9-Day 14.

[7] = test system: human dermal fibroblasts (HDFs); experiment: UCP1 protein immunostaining, comparison of four inhibitors (Example 16); conditions: ALK5 inhibitor II 4 μM, LY2157299 8 μM; for UCP1 protein expression by immunostaining (induction into brown adipocytes): SB431542 4 μM, D4476 4 μM up to Day 9, day 14, FIG. 16A, 16B
Method: Thereafter, the cells were cultured in an adipocyte induction medium free of any compound of ALK5 inhibitor II, SB431542, LY215799 and D4476 during Day 9-Day 14. On day 14, the medium was removed by suction from each well, and the cells were washed with PBS(−).

Structure (SMILES)	Oil Red O staining [1]	mRNA expression of CIDEA gene (conversion to brown adipocytes) [2]	mRNA expression of AdipoQ gene (conversion to brown adipocytes) [3]	lipid droplets stained with BODIPY (conversion to brown adipocytes) [4]	UCP1 protein expression by immunostaining (conversion to brown adipocytes) [5]	induction efficiency into brown adipocytes (order) [6]	UCP1 gene expression (conversion to brown adipocytes) [6]	UCP1 protein expression by immunostaining (induction into brown adipocytes) [7]	strength of induction of UCP1 expression (order) ([7]; immunostaining day 14, FIG. 16)
Cc1cccc(-c2n[nH]cc2-c2ccc3ncccc3n2)n1 [ALK5 Inhibitor II, 2-(3-(6-Methylpyridin-2-yl)-1H-pyrazol-4-yl)-1,5-naphthyridine]	Remarkable Oil Red O staining	converted to brown adipocytes expressing mRNA of CIDEA gene	converted to brown adipocytes expressing mRNA of AdipoQ gene	converted to brown adipocytes having lipid droplets stained with BODIPY	converted to brown adipocytes expressing UCP1 protein	most strongly induced into brown adipocytes	converted to brown adipocytes strongly expressing UCP1 gene	induced into brown adipocytes expressing UCP1 protein	most strongly induced
NC(=O)c1ccc(-c2nc(-c3ccc4c(c3)OCCO4)c(-c3ccccn3)[nH]2)cc1 [D4476, 4-[4-(2,3-dihydro-1,4-benzodioxin-6-yl)-5-(2-pyridlnyl-)1H-imidazol-2-yl]-benzamide]	Remarkable Oil Red O staining	converted to brown adipocytes expressing mRNA of CIDEA gene	converted to brown adipocytes expressing mRNA of AdipoQ gene	converted to brown adipocytes having lipid droplets stained with BODIPY	converted to brown adipocytes expressing UCP1 protein	ALK5 inhibitor II>LY2157299>SB431541>D4476	converted to brown adipocytes strongly expressing UCP1 gene	induced into brown adipocytes expressing UCP1 protein	–

— patent publication US20240084258A1, “METHOD FOR PREPARING BROWN ADIPOCYTE” (KYOTO PREFECTURAL PUBLIC UNIVERSITY CORPORATION, priority 2015, published 2024)
